The test system of assay [1] is prickly sida (Sida spinosa L.) (PS). Nature of the assay: Preemergence herbicide test, soil drench, prickly sida. The following applies: Sida spinosa, 336 h, 10 lbs/A (11.2 kg/ha) soil drench, two weeks after treatment, vs untreated checks, read-out: Percent Weed Control PS. The assay is classed as in vivo. As for the experimental part: To illustrate the effectiveness of the previously described substituted oxadiazines of this invention as preemergence herbicides, 300 mg of the chemical was dissolved in a composition comprising 10 mL acetone to which 30 mg of tile emulsifying agent, ethoxylated sorbitan monolaurate, was added. The solution was diluted to 100 mL with distilled water. Ten milliliters of this 3000 ppm solution was diluted to 250 ppm with distilled water. […]
prickly sida (Sida spinosa L.) (PS),
(§1) The percent control of the weeds compared to untreated checks was determined two weeks after treatment. TABLE 1 summarizes the results achieved with compounds formulated as indicated above, and the data clearly indicate the good to excellent herbicidal efficacy of compositions of this invention.

For assay [2], the system named is velvetleaf (Abutilon theophrasti Medik.) (VL). Nature of the assay: Preemergence herbicide test, soil drench, velvetleaf. The assay is classed as in vivo. The conditions noted are these: 10 lbs/A (11.2 kg/ha) soil drench, two weeks after treatment, vs untreated checks; for pest or weed control at 11208.5 g/ha: Abutilon theophrasti, 336 h, read-out: Percent Weed Control VL. As for the experimental part: (§2) To illustrate the effectiveness of the previously described substituted oxadiazines of this invention as preemergence herbicides, 300 mg of the chemical was dissolved in a composition comprising 10 mL acetone to which 30 mg of tile emulsifying agent, ethoxylated sorbitan monolaurate, was added. The solution was diluted to 100 mL with distilled water. Ten milliliters of this 3000 ppm solution was diluted to 250 ppm with distilled water. The chemical was applied at the rate of 10 pounds/acre (11.2 kg/ha) by drenchings 46 mL of the 250 ppm solution on the surface of soil in 4½ inch (11.25 cm) plastic pots wherein seeds of the following weeds had been planted: velvetleaf (Abutilon theophrasti Medik.) (VL), The percent control of the weeds compared to untreated checks was determined two weeks after treatment. TABLE 1 summarizes the results achieved with compounds formulated as indicated above, and the data clearly indicate the good to excellent herbicidal efficacy of compositions of this invention.

The test system of assay [3] is switchgrass (Panicum virgahim L.) (SG). Nature of the assay: Preemergence herbicide test, soil drench, switchgrass. The following applies: 10 lbs/A (11.2 kg/ha) soil drench, two weeks after treatment, vs untreated checks; for pest or weed control at 11208.5 g/ha: Panicum, 336 h, read-out: Percent Weed Control SG. The assay is classed as in vivo. As for the experimental part:
as §2, with “planted:” for “planted: velvetleaf (Abutilon theophrasti Medik.) (VL), The percent control of the weeds compared to untreated checks was determined two weeks after treatment. TABLE 1 summarizes the results achieved with compounds formulated as indicated above, and the data clearly indicate the good to excellent herbicidal efficacy of compositions of this invention.”
switchgrass (Panicum virgahim L.) (SG),
as §1

The subject of assay [4] is tall morningglory (Ipomoea purpurea (L.) Roth) (TM). Put plainly: Preemergence herbicide test, soil drench, tall morningglory. The assay is classed as in vivo. The following applies: 10 lbs/A (11.2 kg/ha) soil drench, two weeks after treatment, vs untreated checks; for pest or weed control at 11208.5 g/ha: Ipomoea, 336 h, read-out: Percent Weed Control TM. As for the experimental part: as §2, with “tall morningglory (Ipomoea purpurea (L.) Roth) (TM),” for “velvetleaf (Abutilon theophrasti Medik.) (VL),”

Assay [5] deals with green foxtail (Setaria virdis (L.) Beauv.) (GF). Nature of the assay: Preemergence herbicide test, soil drench, green foxtail. The conditions noted are these: 10 lbs/A (11.2 kg/ha) soil drench, two weeks after treatment, vs untreated checks; for pest or weed control at 11208.5 g/ha: Setaria, 336 h, read-out: Percent Weed Control GF. Type of assay: in vivo. As for the experimental part:
as §2, with “41⁄2” for “4½”, “green foxtail (Setaria […].) Beauv.) (GF).” for “velvetleaf (Abutilon theophrasti Medik.) (VL),”

In assay [6] the test system is jimsonweed (Datura stramonium L.) (JW). Put plainly: Preemergence herbicide test, soil drench, jimsonweed. The conditions noted are these: 10 lbs/A (11.2 kg/ha) soil drench, two weeks after treatment, vs untreated checks. The assay is classed as in vivo. As for the experimental part: as §2, with “jimsonweed (Datura stramonium L.) (JW),” for “velvetleaf (Abutilon theophrasti Medik.) (VL),”

For assay [7], the system named is barnyardgrass (Echinochloa crus-galli (L.) Beauv.) (BG). Put plainly: Preemergence herbicide test, soil drench, barnyardgrass. The assay is classed as in vivo. The conditions noted are these: 10 lbs/A (11.2 kg/ha) soil drench, two weeks after treatment, vs untreated checks; for pest or weed control at 11208.5 g/ha: Echinochloa crus-galli, 336 h, read-out: Percent Weed Control BG. As for the experimental part:
as §2, with “barnyardgrass (Echinochloa crus-galli (L.) Beauv.) (BG), and” for “velvetleaf (Abutilon theophrasti Medik.) (VL),”

For another assay, the system named is insects. Nature of the assay: Insecticidal properties (no method given). The conditions noted are these: statement in words, no test details.

With `FC(F)(F)C(F)(F)C(F)(F)C1=NC(C(F)(F)F)(C(F)(F)F)N=C(c2ccccc2)O1` [2-(heptafluoropropyl)-6-phenyl-4,4-bis(trifluoromethyl)-4H-1,3,5-oxadiazine, reference compound], the pest or weed control at 11208.5 g/ha in assay [1], in assay [2], in assay [3], in assay [4], in assay [5] and in assay [7] was 0% each time. Also, the “Percent Weed Control JW” value in assay [6] was found to be 0%.

On to `FC(F)(F)C1=NC(C(F)(F)F)(C(F)(F)F)N=C(c2ccccc2C(F)(F)F)O1` [Compound 6, 2,4,4-tris(trifluoromethyl)-6-{(2-trifluoromethyl)phenyl}-4H-1,3,5-oxadiazine], for which the “Percent Weed Control VL” value in assay [2] is 100%. Besides, the “Percent Weed Control SG” value in assay [3] is 75%. Also, the “Percent Weed Control TM” value in assay [4] stood at 100%. For the same molecule, the “Percent Weed Control GF” value in assay [5] turned out to be 100%. The “Percent Weed Control JW” value in assay [6] came out at 75%. Moreover, the “Percent Weed Control BG” value in assay [7] amounted to 50%.

For the molecule `FC(F)(F)C(F)(F)C1=NC(C(F)(F)F)(C(F)(F)F)N=C(c2ccccc2Cl)O1` [Compound 12, 2-(2-chlorophenyl)-6-(pentafluoroethyl)-4,4-bis(trifluoromethyl)-4H-1,3,5-oxadiazine], the pest or weed control at 11208.5 g/ha in assay [2] turned out to be 100%; in assay [3], 75%; in assay [4] it was 100%; in assay [5], 100%; in assay [7], 0%. For the same molecule, the “Percent Weed Control JW” value in assay [6] is listed as 100%.

In the case of `FC(F)(F)c1cccc(C2=NC(C(F)(F)F)(C(F)(F)F)N=C(C(F)(F)C(F)(F)F)O2)c1` [Compound 14, 2-(pentafluoroethyl)-4,4-bis(trifluoromethyl)-6-{(3-trifluoromethyl)phenyl}-4H-1,3,5-oxadiazine], the insecticidal properties result in the assay with insects is reported as “found to have insecticidal properties”. Moreover, the “Percent Weed Control VL” value in assay [2] is listed as 100%. Also, in assay [3], the “Percent Weed Control SG” value was 100%. For the same molecule, in assay [4], the “Percent Weed Control TM” value is 100%. In assay [5], the “Percent Weed Control GF” value stood at 100%. In assay [6], the “Percent Weed Control JW” value stood at 100%. In assay [7], the “Percent Weed Control BG” value is 100%.

Consider `FC(F)(F)Oc1ccc(C2=NC(C(F)(F)F)(C(F)(F)F)N=C(C(F)(F)C(F)(F)F)O2)cc1` [Compound 16, 2-(pentafluoroethyl)-6-{(4-trifluoromethoxy)phenyl}-4,4-bis(trifluoromethyl)-4H-1,3,5-oxadiazine], for which the insecticidal properties entry in the assay on insects is on record as “found to have insecticidal properties”. Also, the “Percent Weed Control VL” value in assay [2] is on record as 100%. The “Percent Weed Control SG” value in assay [3] was found to be 100%. Further, the “Percent Weed Control TM” value in assay [4] is listed as 100%. For the same molecule, in assay [5], the “Percent Weed Control GF” value is reported as 100%. For the same molecule, the “Percent Weed Control JW” value in assay [6] was determined as 100%. In assay [7], the “Percent Weed Control BG” value is 100%.

Regarding `FC(F)(F)C(F)(F)C1=NC(C(F)(F)F)(C(F)(F)F)N=C(c2cc(Cl)cc(Cl)c2)O1` [Compound 21, 2-(3,5-dichlorophenyl)-6-(pentafluoroethyl)-4,4-bis(trifluoromethyl)-4H-1,3,5-oxadiazine], the pest or weed control at 11208.5 g/ha in assay [2], in assay [3], in assay [4], in assay [5] and in assay [7] was 100% in each case. Also, in assay [6], the “Percent Weed Control JW” value amounted to 100%.

In the case of `Cc1cccc(C2=NC(C(F)(F)F)(C(F)(F)F)N=C(C(F)(F)C(F)(F)F)O2)c1` [Compound 22, 2-(3-methylphenyl)-6-(pentafluoroethyl)-4,4-bis(trifluoromethyl)-4H-1,3,5-oxadiazine], the pest or weed control at 11208.5 g/ha in assay [2] worked out at 100%; in assay [3], 0%; in assay [4], 0%; in assay [5] it was 50%; in assay [7], 0%. The “Percent Weed Control JW” value in assay [6] stood at 100%.

Turning to `COc1cccc(C2=NC(C(F)(F)F)(C(F)(F)F)N=C(C(F)(F)C(F)(F)F)O2)c1` [Compound 23, 2-(3-methoxyphenyl)-6-(pentafluoroethyl)-4,4-bis(trifluoromethyl)-4H-1,3,5-oxadiazine], the pest or weed control at 11208.5 g/ha in assay [2] worked out at 100%; in assay [3], 50%; in assay [4], 100%; in assay [5], 50%; in assay [7] it was 0%. Further, the “Percent Weed Control JW” value in assay [6] was 100%.

Values taken from patent US6514911B1, “Substituted oxadiazines useful as pesticides” (Uniroyal Chemical Company, Inc., priority 2002, dated 2003).
